Experimental data: patent publication US10947575B2, “Rapid antimicrobial susceptibility test, based on an analysis of changes in morphology and growth pattern of a microbial cell under different concentrations of various antimicrobial agents, and automated cell image analysis system therefor” (priority 2014, dated 2021)

Columns and labels:
P. aeruginosa ATCC 27853 [1] = conditions: time to result 16~20 hr; cited from earlier work
E. coli ATCC 25922 [2] = conditions: time to result 16~20 hr; cited from earlier work
E. faecalis ATCC 29212 [3] = experiment: MIC by the proposed method (SCMA), from morphology and growth pattern changes; format: cell-based; conditions: time to result 4 hr
Source text: (§1) The bacterial cell in MAC 2.0™ (QuantaMatrix) was monitored through a S Plan Fluor ELWD 60X (NA 1.49) lens of an inverted optical microscope (Eclipse Ti—Nikon, IX71—Olympus) provided in a heating system, and then, an electron multiplying CCD camera (QuantEM:512SC Photometrics for Eclipse Ti) was used to obtain images of a region where is adjacent to an interface between the agarose well of MAC 2.0™ and the antimicrobial agents well, over time. […] In the AST method according to the inventive concept, minimal inhibitory concentration (MIC) was measured using the changes in morphology and growth pattern of the four reference strains (i.e., E. coli ATCC 25922, S. aureus ATCC 29213, P. aeruginosa ATCC 27853, and E. faecalis ATCC 29212) and was compared with MIC quality control (QC) per CLSI guidelines.

S. aureus ATCC 29213 [4] = experiment: as above; format: cell-based; conditions: time to result 4 hr
Source text: as §1

P. aeruginosa ATCC 27853 [5] = experiment: as above; format: cell-based; conditions: time to result 3 hr
Source text: as §1

E. coli ATCC 25922 [6] = experiment: as above; format: cell-based; conditions: time to result 3 hr, unit assumed
Source text: as §1

S. aureus ATCC 29213 [7] = conditions: time to result 16~20 hr; cited from earlier work
E. faecalis ATCC 29212 [8] = conditions: time to result 16~20 hr, unit assumed; cited from earlier work
E. faecalis ATCC 29212 [9] = experiment: AST by analysis of changes in morphology and growth pattern of a microbial cell (MAC 2.0 chip imaging); format: cell-based; conditions: RRG = relatively rapid growth, RSG = relatively slow growth
Source text: (§2) Four reference strains (E. coli ATCC 25922, S. aureus ATCC 29213, P. aeruginosa ATCC 27853, and E. faecalis ATCC 29212) were used as objective strains, in accordance with Clinical and Laboratory Standards Institute (CLSI) guidelines. […] The bacterial cell in MAC 2.0TM (QuantaMatrix) was monitored through a S Plan Fluor ELWD 60X (NA 1.49) lens of an inverted optical microscope (Eclipse Ti-Nikon, IX71-Olympus) provided in a heating system, and then, an electron multiplying CCD camera (QuantEM:512SC Photometrics for Eclipse Ti) was used to obtain images of a region where is adjacent to an interface between the agarose well of MAC 2.0TM and the antimicrobial agents well, over time.

S. aureus ATCC 29213 [10] = experiment: as above; format: cell-based; conditions: RRG = relatively rapid growth, RSG = relatively slow growth
Source text: as §2

P. aeruginosa ATCC 27853 [11] = experiment: as above; format: cell-based; conditions: Normal / Filament / Swelling
Source text: as §2

E. coli ATCC 25922 [12] = experiment: as above; format: cell-based; conditions: Normal / Filament / Swelling
Source text: as §2

## Gentamicin
P. aeruginosa ATCC 27853 [1]
  CLSI QC range (MIC): 0.5~2
E. coli ATCC 25922 [2]
  CLSI QC range (MIC): 0.25~1
E. faecalis ATCC 29212 [3]
  SCMA Results (MIC): ≤ 500 µg/mL
S. aureus ATCC 29213 [4]
  SCMA Results (MIC): 0.25~0.5
P. aeruginosa ATCC 27853 [5]
  SCMA Results (MIC): 0.5~1
E. coli ATCC 25922 [6]
  SCMA Results (MIC): 0.25 µg/mL
S. aureus ATCC 29213 [7]
  CLSI QC range (MIC): 0.12~1
E. faecalis ATCC 29212 [8]
  CLSI QC range (MIC): ≤ 500 µg/mL
E. faecalis ATCC 29212 [9]
  Criteria (change in morphology and growth pattern): Normal
S. aureus ATCC 29213 [10]
  Criteria (change in morphology and growth pattern): Normal growth
P. aeruginosa ATCC 27853 [11]
  Criteria (change in morphology and growth pattern): Normal growth
E. coli ATCC 25922 [12]
  Criteria (change in morphology and growth pattern): Normal
